Experimental data from US7304046B2, “Phosphoramide compounds” (priority 1999, dated 2007).
Where two headings read alike, the source gives them in different places.

Columns and labels:
A549 (lung) = assay: Growth inhibition, MTT assay, A549; format: cell-based, human; details: A549, 72-h drug exposure, read-out: IC50 growth inhibitory activity
Procedure: (§1) The growth inhibitory properties of representative compounds of the invention were also determined by evaluating their growth inhibitory activity against a series of human tumor cell lines using a 72-h drug exposure. Cell counts were measured using the MTT assay.

A498 (kidney) = assay: Growth inhibition, MTT assay, A498; format: cell-based, human; details: A498, 72-h drug exposure, read-out: IC50 growth inhibitory activity
Procedure: as §1

PC-3 (prostate) = assay: Growth inhibition, MTT assay, PC-3; format: cell-based, human; details: PC-3, 72-h drug exposure, read-out: IC50 growth inhibitory activity
Procedure: as §1

PaCa-2 (pancreas) = assay: Growth inhibition, MTT assay, PaCa-2; format: cell-based, human; details: PaCa-2, 72-h drug exposure; for IC50: read-out: IC50 growth inhibitory activity
Procedure: as §1

UMUC3 (bladder) = assay: Growth inhibition, MTT assay, UMUC3; format: cell-based, human; details: UMUC3, 72-h drug exposure; for IC50: read-out: IC50 growth inhibitory activity
Procedure: as §1

MDA231 (breast) = assay: Growth inhibition, MTT assay, MDA231; format: cell-based, human; details: read-out: IC50 growth inhibitory activity
Procedure: as §1

HT-29 (colon) = assay: Growth inhibition, MTT assay, HT-29; format: cell-based, human; details: HT-29, 72-h drug exposure, read-out: IC50 growth inhibitory activity
Procedure: as §1

IGROV (ovarian) = assay: Growth inhibition, MTT assay, IGROV; format: cell-based, human; details: 72-h drug exposure, read-out: IC50 growth inhibitory activity
Procedure: as §1

HT-29 cells = assay: Test A: in vitro cytotoxicity, clonogenic survival of HT-29 cells; format: cell-based, human; details: 2 h drug treatment, colonies after 10 days, concentration at which there is a 1% cell survival
Source text: (§2) Test A: In Vitro Cytotoxicity (Clonogenic Survival of HT-29 and BE Cells):
(§3) The human colon carcinoma cell line HT-29 was obtained from the American Type Culture Collection (ATCC), and the BE cell line was provided by Dr. D. Ross, University of Colorado. A modification of the procedure described by Miribelli et al Cancer Research, 1985, 45, 32–39 was used to determine the clonogenic survival of the cells. HT-29 and BE cells in exponential growth were suspended in unsupplemented Eagles MEM medium (10 mL) at a final density of 1.7–2×10^5 cells/mL. Unsupplemented medium contains Minimum Essential Medium (Gibco) and HEPES (0.02 M). The drug stock solutions (0.1–40 mM) were prepared using either ethanol or dimethyl sulfoxide as solvent. The maximum amount of DMSO or ethanol used in the drug treatments was 1% of the total volume. Appropriate volumes (6.5 to 100 μL) of the drug stock solution were added to five vials of the cell suspensions, to give five different final drug concentrations, and 100 μL of solvent was added to a sixth vial for a control. The treated cells were incubated for 2 h (37° C., 5% CO2). The cells were spun down and rinsed three times with supplemented medium (3 mL) and then diluted in 5 mL of supplemented medium. Supplemented medium is prepared by adding Fetal Bovine Serum (10%), gentamicin (0.05 mg/mL), L-glutamine (0.03 mg/mL), and sodium pyruvate (0.1 mM) to unsupplemented medium. The cells were counted using a Coulter Counter and then plated at 2–3 different densities for each drug concentration and incubated for 10 days. The colonies were stained with 0.5% crystal violet in 95% ethanol and those colonies comprised of 50 or more cells were counted using a microscope and pen-style counter. The LC99 of each compound (the concentration at which there is a 1% cell survival) was determined by plotting the log surviving fraction vs. drug concentration.

[1] = Releasing group activity: chemical reduction with sodium dithionite monitored by 31P NMR; format: physicochemical; details: sodium dithionite 3 equiv, 3:4 CH3CN:0.4 M cacodylate buffer, pH ~7.4, 37° C.
Procedure: (§4) The quinone was dissolved in CH3CN (0.3 mL, or THF for 16a) and the activating agent (glutathione, or sodium dithionite) was dissolved in cacodylate buffer (0.4 mL, 0.4 M, pH 7.7). The buffer solution was added to the organic solution and the pH of the mixture was adjusted to ˜7.4. The reaction mixture was transferred to a 5-mm NMR tube, and the data acquisition was started (pulse delay 30 μs). Spectra were taken every 2.5 minutes for 0.5 h, then every 5 min for 0.5 h, then every 10 min for 1 h, and time points for each spectrum were assigned from the initiation of the reaction. Chemical shifts are reported relative to the TPPO reference. The temperature of the probe was maintained at 37° C., if necessary, using the Bruker variable temperature unit. The relative concentrations of the intermediates were determined by measuring the peak areas.
Naphthoquinone 15a was reduced with sodium dithionite (3 equiv, 3:4 CH3CN:0.4 M cacodylate buffer, pH˜7.4, 37° C.), and the reaction was followed by ^31P NMR. The resonance for quinone […] at −5.3 ppm disappeared within 5 minutes and was replaced by the resonance for the corresponding phosphoramide mustard at −12.2 ppm.

BE cells = assay: Test A: in vitro cytotoxicity, clonogenic survival of BE cells; format: cell-based; details: 2 h drug treatment, colonies after 10 days, concentration at which there is a 1% cell survival
Source text: as §2, §3

[2] = Activation by glutathione monitored by 31P NMR; format: physicochemical
Procedure: as §4
Thus, the following study was conducted to determine whether glutathione would activate compounds of formula I in a similar way. Glutathione, the primary non-protein intracellular thiol, is responsible for maintaining the cellular redox environment and removing potential electrophilic cytotoxins. […] Thus, the reaction of 15a with glutathione (3 equiv, 1:1.3 CH3CN:0.4 M cacodylate buffer, pH˜7.5, RT) was monitored by ^31P NMR.

human tumor cell lines = assay: Growth inhibition, MTT assay, series of human tumor cell lines (all cell lines); format: cell-based; details: all cell lines of Table 2, 72-h drug exposure
Procedure: as §1

[3] = Homo sapiens, MDA-MB-231, MDA231, 72-h drug exposure

With “3-(5-Methoxy-1-methyl-4,7-indolequinonyl)methyl N,N-bis(2-bromoethyl)phosphorodiamidate [Compound 4]” the IC50 (A549 (lung)) was 398 nM, the IC50 (A498 (kidney)) was 998 nM and the IC50 (PC-3 (prostate)) was 649 nM. The IC50 (PaCa-2 (pancreas)) was 215 nM, the IC50 (UMUC3 (bladder)) was 10 nM and the IC50 (MDA231 (breast); MDA231, 72-h drug exposure) was 194 nM. It also gave an IC50 (HT-29 (colon)) of 241 nM.

Molecule `COC1=CC(=O)c2c(cc(COP(=O)(N(C)CCBr)N(C)CCBr)n2C)C1=O` [Compound 5, 2-(5-Methoxy-1-methyl-4,7-indolequinonyl)methyl bis[N-methyl-N-(2-bromoethyl)]phosphorodiamidate] has an IC50 (A549 (lung); Homo sapiens) of 260 nM, an IC50 (A498 (kidney); Homo sapiens) of 2650 nM and an IC50 (PC-3 (prostate); Homo sapiens) of 420 nM. For the same molecule, the IC50 (IGROV (ovarian); Homo sapiens) was 7590 nM, the IC50 (PaCa-2 (pancreas); Homo sapiens) was 13 nM and the “IC50 values in words” value (PaCa-2 (pancreas)) was “low nanomolar range”. For the same molecule, the IC50 (UMUC3 (bladder); Homo sapiens) was 14 nM, the “IC50 values in words” value (UMUC3 (bladder)) was “low nanomolar range” and the IC50 (MDA231 (breast); [3]) was 210 nM. It also gave an IC50 (HT-29 (colon); Homo sapiens) of 93 nM.

With `COC1=CC(=O)c2c(cc(COP(N)(=O)N(CCCl)CCCl)n2C)C1=O` (stereo not shown) [Compound 6a, 2-(5-Methoxy-1-methyl-4,7-indolequinonyl)methyl N,N-bis(2-chloroethyl)phosphorodiamidate] the IC50 (A549 (lung)) was 203 nM, the IC50 (A498 (kidney)) was 862 nM and the IC50 (PC-3 (prostate)) was 170 nM. The IC50 (IGROV (ovarian)) was 1700 nM, the “IC50 values in words” value (PaCa-2 (pancreas)) was “low nanomolar range” and the IC50 (PaCa-2 (pancreas)) was 6 nM. For the same molecule, the “IC50 values in words” value (UMUC3 (bladder)) was “low nanomolar range”, the IC50 (UMUC3 (bladder)) was 22 nM and the IC50 (MDA231 (breast); MDA231, 72-h drug exposure) was 3500 nM. For the same molecule, the IC50 (HT-29 (colon)) was 340 nM.

`COC1=CC(=O)c2c(cc(COP(N)(=O)N(CCBr)CCBr)n2C)C1=O` (stereo not shown) [Compound 6b, 2-(5-Methoxy-1-methyl-4,7-indolequinonyl)methyl N,N-bis(2-bromoethyl)phosphorodiamidate] gave an IC50 (A549 (lung)) of 9 nM, an IC50 (A498 (kidney)) of 199 nM and an IC50 (PC-3 (prostate)) of 195 nM. The IC50 (IGROV (ovarian)) was 1470 nM, the “IC50 values in words” value (PaCa-2 (pancreas)) was “low nanomolar range” and the IC50 (PaCa-2 (pancreas)) was 35 nM. The “IC50 values in words” value (UMUC3 (bladder)) was “low nanomolar range”, the IC50 (UMUC3 (bladder)) was 1 nM and the IC50 (MDA231 (breast); MDA231, 72-h drug exposure) was 1630 nM. It also gave an IC50 (HT-29 (colon)) of 61 nM.

With `NP(=O)(OCC1=CC(=O)c2ccccc2C1=O)N(CCCl)CCCl` (stereo not shown) [Compound 15a, 2-(1,4-Naphthoquinonyl)methyl N,N-bis(2-chloroethyl) phosphorodiamidate] the LC99 (HT-29 cells) was 11 µM, the “time until quinone resonance disappeared and was replaced by phosphoramide mustard resonance” value [1] was no more than 5 min and the LC99 (BE cells) was 13 µM. For the same molecule, the “time until quinone resonance disappeared and was replaced by phosphorodiamidate anion resonance” value ([2]; glutathione 3 equiv, 1:1.3 CH3CN:0.4 M cacodylate buffer, pH ~7.5, RT) was no more than 4 min and the “activation with one equivalent of glutathione, in words” value ([2]; only one equivalent of glutathione, compared with 3 equiv) was “essentially identical”.

Molecule `CC1=C(COP(N)(=O)N(CCCl)CCCl)C(=O)c2ccccc2C1=O` (stereo not shown) [Compound 15b, 2-(3-Methyl-1,4-naphthoquinonyl)methyl N,N-bis(2-chloroethyl) phosphorodiamidate] has an LC99 (HT-29 cells) of 2.1 µM and an LC99 (BE cells) of 1.0 µM.

Work on `CSC1=C(COP(N)(=O)N(CCCl)CCCl)C(=O)c2ccccc2C1=O` (stereo not shown) [Compound 15c, 2-(3-Thiomethyl-1,4-naphthoquinonyl)methyl N,N-bis(2-chloroethyl)phosphorodiamidate] yielded an LC99 (HT-29 cells) of 4.2 µM and an LC99 (BE cells) of 5.9 µM.

Molecule `NP(=O)(OCC1=C(Br)C(=O)c2ccccc2C1=O)N(CCCl)CCCl` (stereo not shown) [Compound 15d, 2-(3-Bromo-1,4-naphthoquinonyl)methyl N,N-bis(2-chloroethyl)phosphorodiamidate] has an LC99 (HT-29 cells) of 4.1 µM and an LC99 (BE cells) of 3.3 µM.

In the case of `CC1=C(COP(N)(=O)N(CCBr)CCBr)C(=O)c2ccccc2C1=O` (stereo not shown) [Compound 16b, 2-(3-Methyl-1,4-naphthoquinonyl)methyl N,N-bis(2-bromoethyl) phosphorodiamidate], the LC99 (HT-29 cells) is reported as 1.7 µM and the LC99 (BE cells) is reported as 1.2 µM.

Molecule `O=C1C=C(COP(=O)(NCCCl)NCCCl)C(=O)c2ccccc21` [Compound 17, 2-(1,4-Naphthoquinonyl)methyl bis[N-(2-chloroethyl)] phosphorodiamidate] has an LC99 (HT-29 cells) of 14 µM and an LC99 (BE cells) of 7.8 µM.

With `CN(CCBr)P(=O)(OCC1=CC(=O)c2ccccc2C1=O)N(C)CCBr` [Compound 40a, 2-(1,4-Naphthoquinonyl)methyl bis[N-methyl-N-(2-bromoethyl)]phosphorodiamidate] the LC99 (HT-29 cells) was 4.5 µM, the “IC50 in words, against all cell lines” value (human tumor cell lines) was “low micromolar range” and the IC50 (A549 (lung)) was 11200 nM. It also gave an IC50 (A498 (kidney)) of 4460 nM, an IC50 (PC-3 (prostate)) of 2560 nM and an LC99 (BE cells) of 1.2 µM. It also gave an IC50 (IGROV (ovarian)) of 2050 nM, an IC50 (PaCa-2 (pancreas)) of 2300 nM and an IC50 (UMUC3 (bladder)) of 9950 nM. The IC50 (MDA231 (breast); MDA231, 72-h drug exposure) was 3230 nM and the IC50 (HT-29 (colon)) was 5920 nM.

With `CC1=C(COP(=O)(N(C)CCBr)N(C)CCBr)C(=O)c2ccccc2C1=O` [Compound 40b, 2-(3-Methyl-1,4-naphthoquinonyl)methyl bis[N-methyl-N-(2-bromoethyl)] phosphorodiamidate] the LC99 (HT-29 cells) was 1.5 µM and the LC99 (BE cells) was 0.44 µM.

For `CN(CCCl)P(=O)(OCC1=CC(=O)c2ccccc2C1=O)N(C)CCCl` [Compound 40c, 2-(1,4-Naphthoquinonyl)methyl bis[N-methyl-N-(2-chloroethyl)]phosphorodiamidate], the LC99 (HT-29 cells) was 4.5 µM and the LC99 (BE cells) was 2.8 µM.

With `COC1=CC(=O)c2c(c(COP(=O)(N(C)CCBr)N(C)CCBr)cn2C)C1=O` [Compound 47, 3-(5-Methoxy-1-methyl-4,7-indolequinonyl)-methyl bis[N-methyl-N-(2-bromoethyl)] phosphorodiamidate] the LC99 (HT-29 cells) was 0.07 µM, the IC50 (A549 (lung); Homo sapiens) was 23 nM and the IC50 (A498 (kidney); Homo sapiens) was 344 nM. For the same molecule, the IC50 (PC-3 (prostate); Homo sapiens) was 66 nM, the LC99 (BE cells) was 0.14 µM and the IC50 (IGROV (ovarian); Homo sapiens) was 494 nM. For the same molecule, the IC50 (PaCa-2 (pancreas); Homo sapiens) was 25 nM, the “IC50 values in words” value (PaCa-2 (pancreas)) was “low nanomolar range” and the IC50 (UMUC3 (bladder); Homo sapiens) was 2 nM. For the same molecule, the “IC50 values in words” value (UMUC3 (bladder)) was “low nanomolar range”, the IC50 (MDA231 (breast); [3]) was 40 nM and the IC50 (HT-29 (colon); Homo sapiens) was 65 nM.
